The structures appear in SMILES notation. Structures can show the parent of a compound that is named as a salt. Where two headings read alike, the source gives them in different places. A value given as a limit tells only on which side of the number the result lay.

The target in test [1] is GST-Syk Full Protein (human) (Homo sapiens, UniProt P43405). The test can be described thus: Syk kinase inhibition test (HTRF method). The test is classed as biochemical. In a few lines:
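Human GST-Syk full-length (6.4 nM) phosphorylated biotin-EDPDYEWPSA-NH2 (250 nM) with 100 μM ATP in HEPES pH 7.0/MgCl2 buffer, 2% DMSO, 30 min at room temperature. EDTA stop, then HTRF detection (streptavidin-XL665, Eu anti-phosphotyrosine) after 1 h; 665/620 ratio read.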
Background: Time-resolved FRET reads energy transfer from a long-lived donor to a nearby acceptor.

Test [2] concerns cultured human mast cells. Kind of test: Degranulation inhibition test using cultured human mast cells (IgE cross-linking, β-Hexosaminidase release). The test is classed as cell-based. The following applies: Mast cell, cultured human mast cells, read-out: human degranulation ave. IC50. In a few lines:
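CD34+ cord-blood cells cultured ≥8 weeks with SCF/IL-6/IL-3; FcεRI primed 5 days with rhIL-4 (1 ng/mL) and hIgE (0.5 μg/mL). Compound (0.1% DMSO) preincubated 10 min at 37 °C, then anti-IgE (final 10 μg/mL) 30 min; released β-hexosaminidase read at 405 nm versus total lysate, IC50 (M).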

The mark [3] stands for this setting: HTRF, 100 μM ATP, 30 min room temperature, average, read-out: sykHTRF ave IC50.
The mark [4] stands for this setting: anti-hIgE stimulation, β-Hexosaminidase index, average.
Where [5] appears, read: Tables 1-x, compounds A, read-out: sykHTRF ave IC50.
[6] abbreviates: Tables 2-x, thiophene compounds B, read-out: sykHTRK ave IC50.
Where [7] appears, read: Tables 2-x, thiophene compounds B.

Turning to `CCOC(=O)CCC(=O)N[C@@H](C)c1ncc(-c2cccc(Nc3cc(C)ccn3)n2)s1` [Compound A-120], the IC50 in test [1] (setting [3]) and in test [2] (setting [4]) was over 1000 nM in each case.
On to `CC(=O)NCCN(C)c1ncc(-c2cccc(Nc3cc(C)ccn3)n2)s1` [Compound A-508, N-[2-(N′-methyl-N′-{5-[6-(4-methylpyridin-2-ylamino)pyridin-2-yl]thiazol-2-yl}amino)ethyl]acetamide], for which the IC50 in test [1] (setting [5]) is under 100 nM; in test [2] (Tables 1-x, compounds A) it was 100 to 1000 nM.
Take `CC(O)c1ccc(-c2cccc(Nc3cc(CCO)ccn3)n2)s1` (stereo not shown) [Compound B-55, 1-(5-{6-[4-(2-hydroxyethyl)pyridin-2-ylamino]pyridin-2-yl}thiophen-2-yl)ethanol]: the half-inhibitory concentration (IC50) in test [1] (setting [6]) was under 100 nM; in test [2] (setting [7]), 100 to 1000 nM.
Take `O[C@@H]1CCN(c2ncc(-c3cccc(Nc4cc(Cl)ccn4)n3)s2)C1` [Compound A-539, (R)-1-{5-[6-(4-chloropyridin-2-ylamino)pyridin-2-yl]thiazol-2-yl}pyrrolidin-3-ol]: the IC50 was under 100 nM in test [1] (setting [5]) and under 100 nM in test [2] (Tables 1-x, compounds A).
For the compound `Cc1ccnc(Nc2cccc(-c3cnc(CN4CC(=O)NC(=O)C4)s3)n2)c1` [Compound A-383, 4-{5-[6-(4-methylpyridin-2-ylamino)pyridin-2-yl]thiazol-2-ylmethyl}piperazine-2,6-dione], the 50% inhibitory concentration (IC50) is under 100 nM in test [1] (setting [5]) and 100 to 1000 nM in test [2] (Tables 1-x, compounds A).
Take `CC(=O)N[C@@H](CCC(=O)OCc1ccccc1)c1ncc(-c2cccc(Nc3cc(C)ccn3)n2)s1` [Compound A-98]: the values for the IC50 in test [1] (setting [3]) and in test [2] (setting [4]) were 100 to 1000 nM and over 1000 nM, respectively.
Consider `Cc1ccnc(Nc2cccc(-c3cnc(CCCCCNC(=O)OC(C)(C)C)s3)n2)c1` [Compound A-127], for which the IC50 in test [1] (setting [3]) and in test [2] (setting [4]) was over 1000 nM throughout.
With `Cc1ccnc(Nc2cccc(-c3cnc(N(C)Cc4cccc(C(=O)O)c4)s3)n2)c1` [Compound A-586, 3-[(N-methyl-N-{5-[6-(4-methylpyridin-2-ylamino)pyridin-2-yl]thiazol-2-yl}amino)methyl]benzoic acid dihydrochloride], the IC50 was under 100 nM in test [1] (setting [5]) and over 1000 nM in test [2] (Tables 1-x, compounds A).
As to `Cc1ccnc(Nc2cccc(-c3cnc(CCCCC(N)=O)s3)n2)c1` [Compound A-71, 5-{5-[6-(4-methylpyridin-2-ylamino)pyridin-2-yl]thiazol-2-yl}pentanamide], the figures for the IC50 in test [1] (setting [3]) and in test [2] (setting [4]) were under 100 nM and 100 to 1000 nM, respectively.
In the same order, the values of `Cc1ccnc(Nc2cccc(-c3cnc([C@H]4CC[C@H](C(=O)N5CCC(NC(=O)CO)C5)CC4)s3)n2)c1` (stereo partly shown) [Compound A-313] are 100 to 1000 nM and 100 to 1000 nM.
On to `CC(=O)c1ccc(-c2cccc(Nc3cc(C4(C)OCCO4)ccn3)n2)s1` [Compound B-78], for which the IC50 in test [1] (setting [6]) and in test [2] (setting [7]) was 100 to 1000 nM each time.
As to `CC(=NO)c1ccc(-c2cccc(Nc3cc(C)ccn3)n2)s1` [Compound B-15, 1-{5-[6-(4-methylpyridin-2-ylamino)pyridin-2-yl]thiophen-2-yl}ethanone oxime], the IC50 in test [1] (setting [6]) is under 100 nM; in test [2] (setting [7]) it was 100 to 1000 nM.
Take `Cc1ccnc(Nc2cccc(-c3cnc(N4CCc5cc(C(=O)O)ccc5C4)s3)n2)c1` [Compound A-607, 2-{5-[6-(4-methylpyridin-2-ylamino)pyridin-2-yl]thiazol-2-yl}-1,2,3,4-tetrahydroisoquinoline-6-carboxylic acid]: the IC50 was under 100 nM in test [1] (setting [5]) and 100 to 1000 nM in test [2] (Tables 1-x, compounds A).
Consider `CCOC(=O)CC(C)(C)NC(=O)c1ncc(-c2cccc(Nc3cc(C)ccn3)n2)s1` [Compound A-155], for which the IC50 in test [1] (setting [3]) is 100 to 1000 nM; in test [2] (setting [4]), over 1000 nM.
Taken in the same sequence, the figures for `CC(=O)NCCCCCc1ncc(-c2cccc(Nc3cc(C)ccn3)n2)s1` [Compound A-129] were 100 to 1000 nM and over 1000 nM.
Regarding `Cc1ccnc(Nc2cccc(-c3cnc([C@H]4CC[C@H](C(N)=O)CC4)s3)n2)c1` [Compound A-111, trans-4-{5-[6-(4-methylpyridin-2-ylamino)pyridin-2-yl]thiazol-2-yl}cyclohexanecarboxamide], the IC50 in test [1] (setting [3]) was under 100 nM; in test [2] (setting [4]), 100 to 1000 nM.
Consider `Cc1ccnc(Nc2cccc(-c3ccc(-c4cc(C)no4)s3)n2)c1` [Compound B-66], for which the IC50 in test [1] (setting [6]) is 100 to 1000 nM; in test [2] (setting [7]), over 1000 nM.
In the case of `Cc1ccnc(Nc2cccc(-c3ccc(C(=O)N4CCNCC4)s3)n2)c1` [Compound B-84, {5-[6-(4-methylpyridin-2-ylamino)pyridin-2-yl]thiophen-2-yl}piperazin-1-ylmethanone], the IC50 in test [1] (setting [6]) was under 100 nM; in test [2] (setting [7]), 100 to 1000 nM.
For `Cc1ccnc(Nc2cccc(-c3cnc(N(CC(=O)N(C)C)C[C@H]4CC[C@H](C(=O)O)CC4)s3)n2)c1` [Compound A-601], the half-maximal inhibitory concentration (IC50) in test [1] (setting [5]) was 100 to 1000 nM; in test [2] (Tables 1-x, compounds A), over 1000 nM.
As for `Cc1ccnc(Nc2cccc(-c3cnc([C@H]4CC[C@H](C(=O)N[C@H](CO)Cc5cnc[nH]5)CC4)s3)n2)c1` [Compound A-304, N—[(S)-2-hydroxy-1-(3H-imidazol-4-ylmethyl)ethyl]-trans-4-{5-[6-(4-methylpyridin-2-ylamino)pyridin-2-yl]thiazol-2-yl}cyclohexanecarboxamide], the IC50 in test [1] (setting [3]) was under 100 nM; in test [2] (setting [4]), over 1000 nM.
For the compound `Cc1ccnc(Nc2cccc(-c3ccc(C)s3)n2)c1` [Compound B-13], the IC50 in test [1] (setting [6]) was 100 to 1000 nM; in test [2] (setting [7]), over 1000 nM.
For the compound `CC(=O)N[C@H]1CN(Cc2ncc(-c3cccc(Nc4cc(C)ccn4)n3)s2)C[C@@H]1O` [Compound A-414], the IC50 in test [1] (setting [5]) lay in the range of 100 to 1000 nM; in test [2] (Tables 1-x, compounds A), 100 to 1000 nM.
For `Cc1ccnc(Nc2cccc(-c3cnc(N(C)CCO)s3)n2)c1` [Compound A-519, 2-(N-methyl-N-{5-[6-(4-methylpyridin-2-ylamino)pyridin-2-yl]thiazol-2-yl}amino)ethanol], the IC50 in test [1] (setting [5]) is under 100 nM; in test [2] (Tables 1-x, compounds A), under 100 nM.
Take `COc1ccc(C[C@H](NC(C)=O)c2ncc(-c3cccc(Nc4cc(C)ccn4)n3)s2)cc1` [Compound A-136]: the IC50 is 100 to 1000 nM in test [1] (setting [3]) and over 1000 nM in test [2] (setting [4]).
As for `Cc1ccnc(Nc2cccc(-c3cnc([C@H](C)O)s3)n2)c1` [Compound A-26, (S)-1-{5-[6-(4-methylpyridin-2-ylamino)pyridin-2-yl]thiazol-2-yl}ethanol], the IC50 was under 100 nM in test [1] (setting [3]) and 100 to 1000 nM in test [2] (setting [4]).
On to `Cc1ccnc(Nc2cccc(-c3cnc(C(C)(C)NC(=O)OC(C)(C)C)s3)n2)c1` [Compound A-112], for which the IC50 in test [1] (setting [3]) and in test [2] (setting [4]) was over 1000 nM each time.
Turning to `CC(=O)N1CCN(C(=O)[C@H]2CC[C@H](c3ncc(-c4cccc(Nc5cc(C)ccn5)n4)s3)CC2)CC1` [Compound A-289], the IC50 was 100 to 1000 nM in test [1] (setting [3]) and over 1000 nM in test [2] (setting [4]).
As to `Cc1ccnc(Nc2cccc(-c3cnc(C4CCN(C(=O)CS(C)(=O)=O)CC4)s3)n2)c1` [Compound A-397], the IC50 in test [1] (setting [5]) was in the range of 100 to 1000 nM; in test [2] (Tables 1-x, compounds A) it was 100 to 1000 nM.
For the compound `CC(=O)Nc1ccc(-c2cccc(Nc3cc(C)ccn3)n2)s1` [Compound B-10, N-{5-[6-(4-methylpyridin-2-ylamino)pyridin-2-yl]thiophen-2-yl}acetamide], the IC50 was under 100 nM in test [1] (setting [6]) and 100 to 1000 nM in test [2] (setting [7]).
On to `Cc1ccnc(Nc2cccc(-c3cnc(C(=O)NC(C)(C)C(=O)O)s3)n2)c1` [Compound A-154], for which the values for the 50% inhibitory concentration (IC50) in test [1] (setting [3]) and in test [2] (setting [4]) were 100 to 1000 nM and over 1000 nM, respectively.
Take `Cc1ccnc(Nc2cccc(-c3cnc(N(C)[C@H]4CC[C@@H](C(=O)O)CC4)s3)n2)c1` [Compound A-591, cis-4-(N-methyl-N-{5-[6-(4-methylpyridin-2-ylamino)pyridin-2-yl]thiazol-2-yl}amino)cyclohexanecarboxylic acid]: the 50% inhibitory concentration (IC50) in test [1] (setting [5]) is under 100 nM; in test [2] (Tables 1-x, compounds A), 100 to 1000 nM.
In the case of `CC(=O)N1CCN(Cc2ncc(-c3cccc(Nc4cc(C)ccn4)n3)s2)CC1` [Compound A-190], the half-inhibitory concentration (IC50) in test [1] (setting [3]) and in test [2] (setting [4]) was 100 to 1000 nM throughout.
For `COC(=O)c1ccc(-c2cccc(Nc3cc(C)ccn3)n2)s1` [Compound B-19], the figures for the IC50 in test [1] (setting [6]) and in test [2] (setting [7]) were 100 to 1000 nM and over 1000 nM, respectively.
Regarding `Cc1ccnc(Nc2cccc(-c3cnc([C@@H](O)CCC(=O)O)s3)n2)c1` [Compound A-107], the IC50 in test [1] (setting [3]) was 100 to 1000 nM; in test [2] (setting [4]), over 1000 nM.
For `Cc1ccnc(Nc2cccc(-c3cnc([C@@H]4COC(=O)N4CC(=O)N4C[C@@H](O)[C@@H](O)C4)s3)n2)c1` [Compound A-404], the IC50 is over 1000 nM in test [1] (setting [5]) and over 1000 nM in test [2] (Tables 1-x, compounds A).
As for `Cc1ccnc(Nc2cccc(-c3cnc([C@@H](N)Cc4ccc(NC(=O)OCc5ccccc5)cc4)s3)n2)c1` [Compound A-177], the values for the IC50 in test [1] (setting [3]) and in test [2] (setting [4]) were 100 to 1000 nM and over 1000 nM, respectively.
Turning to `C/C(=N\O)c1ccc(-c2cccc(Nc3cc(Cl)ccn3)n2)s1` [Compound B-75, 1-{5-[6-(4-chloropyridin-2-ylamino)pyridin-2-yl]thiophen-2-yl}ethanone oxime], the IC50 in test [1] (setting [6]) was under 100 nM; in test [2] (setting [7]) it was 100 to 1000 nM.
Turning to `O=C1CC[C@@H](c2ncc(-c3cccc(Nc4cc(OCCO)ccn4)n3)s2)N1` [Compound A-343], the 50% inhibitory concentration (IC50) in test [1] (setting [3]) and in test [2] (setting [4]) was 100 to 1000 nM throughout.

For orientation: IC50 means the concentration that inhibits the measured activity by half.

The values above are taken from patent US7803801B2, “Aminopyridine compounds having Syk inhibitory activity” (Japan Tobacco, Inc., priority 2005, dated 2010).
